Assay results published in US7741363B2, “3-Acylindole derivatives, preparation and therapeutic use thereof” (Sanofi-Aventis, priority 2005, dated 2010).

- melting point: 123 °C
SMILES: Cc1c(C(=O)CC(C)(C)C)c2cccc(Cl)c2n1CCC[S+](C)[O-] (stereo not shown)
